The values that follow come from patent publication US10533014B2, “Immunoregulatory agents” (Flexus Biosciences, Inc., priority 2014, dated 2020).

T1 sequence (P14902 whole entry): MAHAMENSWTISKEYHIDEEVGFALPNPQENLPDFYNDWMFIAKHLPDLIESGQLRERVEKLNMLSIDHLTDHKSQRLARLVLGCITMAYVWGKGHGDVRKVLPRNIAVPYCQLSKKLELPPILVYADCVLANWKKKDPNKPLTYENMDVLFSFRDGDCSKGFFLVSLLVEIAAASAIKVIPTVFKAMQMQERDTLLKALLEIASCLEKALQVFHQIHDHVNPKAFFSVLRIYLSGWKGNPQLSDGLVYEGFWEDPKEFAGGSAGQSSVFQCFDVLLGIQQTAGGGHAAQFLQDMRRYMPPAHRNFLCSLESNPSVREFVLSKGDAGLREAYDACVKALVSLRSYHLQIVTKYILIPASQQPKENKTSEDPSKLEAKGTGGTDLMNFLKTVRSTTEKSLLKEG

The assay addresses T1, human IDO1 (Homo sapiens, UniProt P14902).
T1 construct: expressed in transfected cells
The assay is described as follows: IDO inhibition assay in HEK293 cells stably expressing human IDO1 (Example 252). Type of assay: cell-based. As to conditions: 20 hours incubation, kynurenine by Ehrlich reagent, absorbance at 490 nm, read-out: HEK Human IDO-1 Potency. The procedure: 1HEK293 cells were transfected with a pCDNA-based mammalian expression vector harboring human IDO1 cDNA (NM 002164.2) by electroporation. They were cultured in medium (DMEM with 10% FBS) containing 1 mg/ml G418 for two weeks. Clones of HEK293 cells that stably expressed human IDO1 protein were selected and expanded for IDO inhibition assay.
The human IDO1/HEK293 cells were seeded at 10,000 cells per 50 μL per well with RPMI/phenol red free media contains 10% FBS in a 384-well black wall clear bottom tissue culture plate (Matrix Technologies LLC) 100 nL of certain concentration of compound was then added to each well using ECHO liquid handling systems. The cells were incubated for 20 hours in 37° C. incubator with 5% CO2.
The compound treatments were stopped by adding Trichloroacetic Acid (Sigma-Aldrich) to a final concentration at 0.2%. The cell plate was further incubated at 50° C. for 30 minute. The equal volume supernatant (20 μL) and 0.2% (w/v) Ehrlich reagent (4-dimethylaminobenzaldehyde, Sigma-Aldrich) in glacial acetic acid were mixed in a new clear bottom 384-well plate. This plate was then incubated at room temperature for 30 minute. The absorbance at 490 nm was measured on Envision plate reader.
Take `CC(C(=O)Nc1ccc(Cl)cc1)C1CCC(c2ccnc3c2ncn3C)CC1` (mixture of isomers) [Example 250, (+/−)-Cis and trans-N-(4-chlorophenyl)-2-(4-(3-methyl-3H-imidazo[4,5-b]pyridin-7-yl)cyclohexyl)propanamide]: the IC50 was below 250 nM.

For the molecule `C[C@@H](C(=O)Nc1cccc(C(F)F)c1)[C@H]1CC[C@@H](c2ccnc3ccc(F)cc32)CC1` (relative stereo) [Example 63, (R)-N-(3-(difluoromethyl)phenyl)-2-((cis)-4-(6-fluoroquinolin-4-yl)cyclohexyl)propanamide], the IC50 was below 50 nM.

Consider `C[C@@H](C(=O)NC1CCCCC1)[C@H]1CC[C@@H](c2ccnc3ccc(F)cc32)CC1` (relative stereo) [Example 141, (R)-N-cyclohexyl-2-((cis)-4-(6-fluoroquinolin-4-yl)cyclohexyl) propanamide], for which the IC50 is below 50 nM.

Consider `CC(C(=O)O)c1ccc(C[C@@H](C(=O)Nc2ccc(Cl)cc2)[C@H]2CC[C@@H](c3ccnc4ccccc43)CC2)cc1` (single isomer, unassigned) [Example 87b], for which the IC50 is below 50 nM.

Consider `COCC(C(=O)Nc1ccc(Cl)cc1)N1CCN(c2ccnc3ccc(F)cc23)CC1` (single isomer, unassigned) [Example 136, N-(4-chlorophenyl)-2-(4-(6-fluoroquinolin-4-yl)piperazin-1-yl)-3-methoxypropanamide], for which the IC50 was above 250 nM.

Regarding `CC(C(=O)O)c1ccc(C[C@@H](C(=O)Nc2ccc(Cl)cc2)[C@H]2CC[C@@H](c3ccnc4ccc(F)cc43)CC2)cc1` (single isomer, unassigned) [Example 139], the IC50 was below 50 nM.

As to `O=C(C[C@H]1CC[C@@H](c2ccnc3ccc(F)cc32)CC1)NC1CCCCC1` [Example 142, N-cyclohexyl-2-((cis)-4-(6-fluoroquinolin-4-yl)cyclohexyl) acetamide], the IC50 is below 250 nM.

Regarding “N-(4-chlorophenyl)-2-(cis-4-(6-fluoroquinolin-4-yl)-1-hydroxycyclohexyl)propanamide [Example 231]”, the IC50 is below 250 nM.

For the molecule “N-(4-chlorophenyl)-2-(cis-4-(6-fluoroquinolin-4-yl)-1-hydroxycyclohexyl)propanamide [Example 232]”, the IC50 is below 50 nM.

On to “N-(4-chlorophenyl)-2-(trans-4-(6-fluoroquinolin-4-yl)-1-hydroxycyclohexyl)propanamide [Example 229]”, for which the IC50 is below 50 nM.

With “N-(4-chlorophenyl)-2-(trans-4-(6-fluoroquinolin-4-yl)-1-hydroxycyclohexyl)propanamide [Example 230]”, the IC50 is below 250 nM.
